US12662530B2, “Anti-ADM-antibodies binding to the free N-terminus for accelerated transition of ADM-Gly to bio-ADM in patients with ADM-Gly/ bio-ADM ratio above a threshold and combination with vitamin C” (SphingoTec GmbH, priority 2020, dated 2026)

How the values were obtained:
human native PAM [1] = experiment: Native human PAM activity in human serum with NT- and MR-anti-ADM antibodies; format: biochemical; conditions: antibody 100 μg/mL; FIG. 9
Protocol: Human serum was used as source of human native PAM. Each sample (20 μl) was diluted two-fold in 100 mM Tris-HCl in duplicate. The amidation reaction was initiated by addition of 160 μl of NT-ADM antibodies (HAM8101, AK1373, AK1388, AK1398 or AK1434) or MR-ADM antibodies (ADM43, ADM38, ADM41, ADM2901, ADM2902 and ADM2903) containing PAM-reaction buffer (100 mM Tris-HCl, pH 7.5, 6.25 μM CuSO4, 2.5 mM Ascorbate, 125 μg/mL Catalase, 62.5 μM Amastatin, 250 μM Leupeptin, and 36 ng/mL synthetic 1-53 Adrenomedullin-Gly as substrate). The final antibody concentrations were 100 μg/mL, respectively. Afterwards, 100 μl of each individual reaction of duplicated samples were combined and transferred into 20 μl of 200 mM EDTA to terminate the amidation reaction and thus to generate a t=0 minutes reaction time-point followed by incubation at 37° C. for 40 minutes. Afterwards the non-terminated reactions were stopped with 10 μl of 200 mM EDTA. To determine the PAM activity in NT-ADM antibody containing samples, bio-ADM was quantified in each reaction using the Sphingotest® bio-ADM immunoassay (Weber et al. 2017, supra). The MR-ADM antibody containing reaction was transferred to an alternative bio-ADM assay (description below). A control reaction without antibodies was measured in both bio-ADM assays. For each sample the difference between t=40 min and t=0 min bio-ADM concentration was calculated. […]

human native PAM [2] = experiment: bio-ADM maturation activity (AMA) in samples of healthy subjects before and after administration; format: in vivo
Protocol: Human serum was used as source of human native PAM. Each sample (20 μl) was diluted two-fold in 100 mM Tris-HCl in duplicate. The amidation reaction was initiated by addition of 160 μl of NT-ADM antibodies (HAM8101, AK1373, AK1388, AK1398 or AK1434) or MR-ADM antibodies (ADM43, ADM38, ADM41, ADM2901, ADM2902 and ADM2903) containing PAM-reaction buffer (100 mM Tris-HCl, pH 7.5, 6.25 μM CuSO4, 2.5 mM Ascorbate, 125 μg/mL Catalase, 62.5 μM Amastatin, 250 μM Leupeptin, and 36 ng/mL synthetic 1-53 Adrenomedullin-Gly as substrate). The final antibody concentrations were 100 μg/mL, respectively. Afterwards, 100 μl of each individual reaction of duplicated samples were combined and transferred into 20 μl of 200 mM EDTA to terminate the amidation reaction and thus to generate a t=0 minutes reaction time-point followed by incubation at 37° C. for 40 minutes. Afterwards the non-terminated reactions were stopped with 10 μl of 200 mM EDTA. To determine the PAM activity in NT-ADM antibody containing samples, bio-ADM was quantified in each reaction using the Sphingotest® bio-ADM immunoassay (Weber et al. 2017, supra). The MR-ADM antibody containing reaction was transferred to an alternative bio-ADM assay (description below). A control reaction without antibodies was measured in both bio-ADM assays. For each sample the difference between t=40 min and t=0 min bio-ADM concentration was calculated. PAM activity is described as ng bio-ADM formed per hour and L of sample and was normalized to the reaction without antibody addition, which was set as 100%.
The formation of bio-ADM from ADM-Gly by recombinant human PAM enzyme and the invivo influence of the N-terminal anti-Adrenomedullin antibody HAM8101 using samples from healthy subjects that received HAM8101 was investigated by measuring the bio-ADM maturation activity (AMA).
Samples from n=3 subjects from each administration group before and 1 hour after administration of HAM8101 were used. Activity was determined as described for Serum samples in example 5b). The assay was calibrated using recombinant human PAM of known activity (InVivo Biotech Services GmbH, Hennigsdorf). Calibrators, controls and samples were treated in the same manner. The produced bio-ADM in the reaction-samples was quantified using the Sphingotest® bio-ADM assay (Weber et al., 2017). For each sample the difference of the t=40 min and t=0 min signal (RLUs, relative light units) was calculated and the signal (RLU(t40−t0 min)) of the calibrator was used to determine the AMA in tested serum samples. AMA is expressed as ng bio-ADM formed per hour and Liter of sample (ng/[h*L]).

native human plasma PAM = experiment: Formation of bio-ADM by native human PAM in Li-Heparin plasma, with and without exogenous ADM-Gly; format: biochemical; conditions: without addition of exogenous ADM-Gly; HAM8101 300 μg/mL; 90 minutes
Protocol: In a further experiment we investigated the formation of bio-ADM from ADM-Gly by native human plasma PAM and the influence of N-terminal- and mid-regional anti-adrenomedullin antibodies.
Human Li-Heparin plasma (pool of 3 specimen) was used as source of human native PAM. The amidation reaction was performed in a total volume of 120 μl at 37° C. 96 μl of plasma were spiked with either HAM8101 (375 μg/mL final concentration) or ADM-Gly (5 ng/mL final concentration) or with both. As control, equal volumes of 100 mM Tris-HCl, pH 7.5 were added to untreated plasma. The prepared samples were allowed to chill for 15 minutes at room temperature. The amidation reaction was started by addition of 24 μl of PAM-reaction buffer resulting in final concentrations of 2 mM L-Ascorbate and 5 μM CuSO4, respectively. The final concentrations of HAM8101 and ADM-Gly were 300 μg/mL and 4 ng/mL, respectively. The reaction was allowed to proceed for 90 minutes at 37° C. After 0 min, 30 min, 60 min and 90 min of incubation, the reaction was stopped by addition of 20 mM EDTA (final concentration). The concentration of bio-ADM in the reaction sample was quantified using the Sphingotest® bio-ADM immunoassay as described recently (Weber et al. 2017. JALM 2(2): 222-233).

MR-proADM/bio-ADM ratio = MR-proADM/bio-ADM ratio in samples of healthy subjects after administration; format: in vivo, human; conditions: Table 5, n 18
Protocol: Critically ill subjects were from the AdrenOSS-I cohort described in example 7. Healthy and healthy HAM8101 treated subjects were from the study cohort described in example 6 (Geven et al. 2017. Intensive Care Med Exp 5 (Suppl 2): 0427). Bio-ADM was determined as described by Weber et al., 2017. ADM-Gly was determined as described in example 4.
The same patients as described in example 8 were also analysed for their MR-proADM/ADM-NH2 ratio.

HAM8101: humanized N-terminal anti-ADM antibody, heavy chain SEQ ID No. 35, light chain SEQ ID No. 36
influence on amidating activity compared within the tested antibodies of the same region (human native PAM [1]): showed the strongest influence
AMA increased by (human native PAM [2]; group 1 (0.5 mg/kg), after 1 hour): approximately 60%
AMA increased by (human native PAM [2]; group 1 (0.5 mg/kg), after 4 hours): ~40%
AMA increased by (human native PAM [2]; group 1 (0.5 mg/kg), after 24 hours): ~52%
AMA increased by (human native PAM [2]; group 2 (2 mg/kg), after 1 hour): approximately 27%
AMA increased by (human native PAM [2]; group 2 (2 mg/kg), after 4 hours): ~25%
AMA increased by (human native PAM [2]; group 2 (2 mg/kg), after 24 hours): ~40%
AMA increased by (human native PAM [2]; group 3 (8 mg/kg), after 1 hour): approximately 65%
AMA increased by (human native PAM [2]; group 3 (8 mg/kg), after 4 hours): ~48%
AMA increased by (human native PAM [2]; group 3 (8 mg/kg), after 24 hours): approximately 60%
change in bio-ADM concentration (native human plasma PAM): No change in bio-ADM concentration
MR-proADM/bio-ADM ratio (MR-proADM/bio-ADM ratio; Healthy HAM8101 treated (1 h)): 44.6
MR-proADM/bio-ADM ratio (MR-proADM/bio-ADM ratio; Healthy HAM8101 treated (4 h)): 42.4
